The values below come from patent US20260053171A1, “METHANOGEN INHIBITORS” (AGRIZERONZ LIMITED PARTNERSHIP, priority 2022, published 2026).

In series [1] the test system is methane production in rumen fluid. Kind of series: Rumen in vitro (RIV) assay, methane production from rumen fluid incubations. As to conditions: Bos taurus, read-out: RIV % methane reduction +/− SD. The series is classed as cell-based, cattle. The method in brief:
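Rumen fluid from two fistulated cattle diluted 12 ml in 48 ml buffer with ryegrass substrate, incubated in sealed bottles at 39° C for 24-48 h in duplicate. Inhibitors added in DMF (stocks 1000-fold above highest assay level); total gas, methane and H2 measured automatically; 30 μM BES positive control, no-inhibitor negative control.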

In another series the test system is female Swiss mice. Nature of the series: Toxicity testing in mice according to OECD 423. The series is classed as in vivo. As to conditions: 300 mg/kg, single dose by oral gavage in corn oil, observed 14 days. As to the method: The potential toxicology of Compound 19 was tested according to OECD 423. Mice testing used two groups with three mice (female Swiss mice, non-pregnant), all at approximately 8-9 weeks of age. On the day of testing, food was withdrawn 1-2 hours prior to dosing. Following fasting, the animals were weighed and the test substances administered. Access to food was resumed 1-2 hours after administration of the compounds. The compounds were administered in a single dose by oral gavage in corn oil (maximum of 0.3 ml per dose) at the selected dose and the time recorded. The mice were observed individually after dosing at least once during the first 30 minutes, periodically over the first 24 hours, with special attention given to the first 4 hours, and then daily thereafter for a total of 14 days. The mice were weighed every seven days (0, 7 and 14 days). All observations were systematically recorded for each individual animal. These observations included (if present): tremors, convulsions, salivation, diarrhoea, lethargy, sleep, coma, and changes in fur, skin, eyes, mucus membranes, respiration, motor activity and behaviour.

Series [2] concerns methane emissions from sheep. Kind of series: Example 1: in vivo study on sheep methane emissions (respiration chambers, once-daily drench). As to conditions: once-daily drenching, 121.3 mg/day, average of 3 sheep. As to the method:
The trial for testing the effects of Compound 19 on methane emissions from sheep over a 96 hour period in methane measurement chambers was approved by the Grasslands Animal Ethics Committee, and the use of the compounds in animals by the New Zealand Food Safety Authority, as required under ACVM legislation. Three sheep were used for each Compound 19 treatment group. The animals received a general-purpose diet (GP) at 1.5× maintenance energy requirements throughout the trials consisting of 500 g hay, 100 g soy bean meal, 290 g barley, 100 g molasses and 10 g mineral mix. During the time in the respiration chambers the animals had free access to water, with the feed offered twice a day at approximately 9:00 and 16:00 h in equal amounts. Feed refusals were weighed.
The animals were adapted to GP diet for 14 days prior to entering the methane measurement chambers. Rumen contents were sampled by stomach tubing before methane emissions were measured in the respiration chambers and the day after being released from the chambers to allow for the future examination of any effects on volatile fatty acids (VFAs). Rumen samples from stomach tubing were immediately subsampled for short chain fatty acid (SCFA) analysis (1.8 ml). The samples were centrifuged (20,000 g, 10 min, 4° C.). […] SCFA were analysed by a HP 6890 gas chromatograph (Attwood et al., 1998).
After the 14-day acclimatisation period, methane emissions were measured in open circuit respiration chambers as described in Chapter 1 of the technical manual on respiration chamber design (http://www.globalresearchalliance.org/wp-content/uploads/2012/03/GRA-MAN-Facility-BestPract-2012-ch13.pdf). Dry matter intake (DMI, kg/d) was recorded during methane measurements from the weight difference of feed offered and refused. […]
Methane gas outputs for the 96-hour period (first 24 hours for background measurements (Period 1), followed by three days of dosing) in open circuit respiration chambers were determined and are summarised in Table 1.

For series [3], the system named is methane emissions from sheep. Nature of the series: Example 2: in vivo study on sheep methane emissions (respiration chambers, dosing in feed twice daily). To be noted: for CH4 Inhibition [%] Average Days 1-3: Average Days 1-3, dose mg/day: Compound 60 412, 69 311, 67 414, 64 344. From the text:
(§1) The trial for testing the effects of Compound 60, Compound 69, Compound 67 and Compound 64 on methane emissions from sheep over a 96-hour period in methane measurement chambers was approved by the Grasslands Animal Ethics Committee. Three sheep were used for each Compound 60 and Compound 69 treatment group and six sheep were used for each Compound 67 and Compound 64 treatment group. The animals received a general-purpose diet (GP) at 1.5× maintenance energy requirements throughout the trials consisting of 500 g hay, 100 g soybean meal, 290 g barley, 100 g molasses and 10 g mineral mix. During the time in the respiration chambers the animals had free access to water, with the feed offered twice a day at approximately 9:00 and 16:00 h in equal amounts. Feed refusals were weighed.
(§2) The animals were adapted to GP diet for 14 days prior to entering the methane measurement chambers. Rumen contents were sampled by stomach tubing before methane emissions were measured in the respiration chambers and the day after being released from the chambers to allow for the future examination of any effects on volatile fatty acids (VFAs). Rumen samples from stomach tubing were immediately subsampled for short chain fatty acid (SCFA) analysis (1.8 ml). The samples were centrifuged (20,000 g, 10 min, 4° C.). An aliquot of 0.9 ml of the supernatant was collected into 0.1 ml of internal standard (19.8 mM ethylbutyrate in 20% v/v phosphoric acid) for SCFA analysis and stored at −20° C. SCFA samples were thawed and centrifuged (20,000 g, 10 min, 4° C.) and 800 μl of the supernatant was collected into a crimp cap glass vial. SCFA were analysed by a HP 6890 gas chromatograph (Attwood et al., 1998).
After the 14-day acclimatisation period, methane emissions were measured in open circuit respiration chambers as described in Chapter 1 of the technical manual on respiration chamber design (http://www.globalresearchalliance.org/wp-content/uploads/2012/03/GRA-MAN-Facility-BestPract-2012-ch13.pdf). Dry matter intake (DMI, kg/d) was recorded during methane measurements from the weight difference of feed offered and refused. The first day in the chambers (24-hour period; Period 1) served as a control for each animal. For the next three days the sheep received Compound 60, Compound 69, Compound 67 and Compound 64 at 412, 311, 414 and 344 mg per day, respectively (72-hour period; Period 2).
Methane gas outputs for the 96-hour period (first 24 hours for background measurements (Period 1), followed by three days of dosing (Period 2)) in open circuit respiration chambers were determined and are summarised in Table 2.

In series [4] the test system is methane emissions from cattle. Kind of series: Example 3: in vivo cattle trial on methane emissions (respiration chambers, dosing in feed twice daily).
From the text: as §1, with “various doses of” for “Compound 60, Compound 69, Compound 67 and”, “cattle” for “sheep”, “four 48-hour periods” for “a 96-hour period”, “Four cattle (Friesian dairy heifers, approximately 400 kg)” for “Three sheep”, “of two” for “Compound 60 and Compound 69 treatment group and six sheep were used for each Compound 67 and”, “groups.” for “group.”
as §2
After the 14-day acclimatisation period, methane emissions were measured in open circuit respiration chambers as described in Chapter 1 of the technical manual on respiration chamber design (http://www.globalresearchalliance.org/wp-content/uploads/2012/03/GRA-MAN-Facility-BestPract-012-ch13.pdf). Dry matter intake (DMI, kg/d) was recorded during methane measurements from the weight difference of feed offered and refused. Chamber measurements were made once a week for five weeks. The first period in the chambers (48-hour period; Period 1) served as a control for each animal. […]
Methane gas outputs for the four 48-hour treatment periods (Periods 2-5) in open circuit respiration chambers were determined and are summarised in Table 1. There were little or no feed refusals.

The mark [5] stands for this setting: Day 1, dose mg/day: Compound 60 412, 69 311, 67 414, 64 344.
Setting [6] is: Day 2, dose mg/day: Compound 60 412, 69 311, 67 414, 64 344.
[7] abbreviates: Day 3, dose mg/day: Compound 60 412, 69 311, 67 414, 64 344.

Turning to `O=C(O)CCC(=O)N1N=C(c2ccc(-c3ccc(Cl)cc3)cc2)CC1c1ccc2nccnc2c1` (stereo not drawn) [Compound 19, 4-(3-(4′-Chloro-[1,1′-biphenyl]-4-yl)-5-(quinoxalin-6-yl)-4,5-dihydro-1H-pyrazol-1-yl)-4-oxobutanoic acid], in series [1], the inhibition at 2 µM is 5.3 ± 0.6%, the inhibition at 10 µM is 83.7 ± 0.6% and the inhibition at 50 µM was 91.1 ± 0.3%. Also, the “adverse effects (OECD 423)” value with female Swiss mice is listed as “No adverse effects”. Also, the “CH4 Inhibition [%]” value in series [2] (Day 1) was −6.5%. The “CH4 Inhibition [%]” value in series [2] (Day 2) was 8.9%. The “CH4 Inhibition [%]” value in series [2] (Day 3) stood at 11.4%.

In the case of `O=C(O)c1cccc(N2N=C(c3ccc(Cl)cc3)CC2c2ccc3nccnc3c2)c1` (stereo not drawn) [Compound 60, 3-(3-(4-Chlorophenyl)-5-(quinoxalin-6-yl)-4,5-dihydro-1H-pyrazol-1-yl)benzoic acid], in series [3], the “CH4 Inhibition [%] Average Days 1-3” value is listed as 26.2%. Moreover, the “CH4 Inhibition [%]” value amounted to 26.3% in series [3] (setting [5]), 20.9% in series [3] (setting [6]) and 31.2% in series [3] (setting [7]). Also, the inhibition at 2 µM in series [1] came out at 16.1 ± 0.5%. The inhibition at 10 µM in series [1] is 90.9 ± 1.2%. For the same compound, in series [1], the inhibition at 50 µM was determined as 97.7 ± 0.6%.

Regarding `CC(C)Oc1ccc(-c2ccc(C3=NN(C(=O)CCC(=O)O)C(c4ccc5nccnc5c4)C3)cc2)cc1` (stereo not drawn) [Compound 64, 4-(3-(4′-Isopropoxy-[1,1′-biphenyl]-4-yl)-5-(quinoxalin-6-yl)-4,5-dihydro-1H-pyrazol-1-yl)-4-oxobutanoic acid], in series [3], the “CH4 Inhibition [%] Average Days 1-3” value worked out at 85.8%. Moreover, the “CH4 Inhibition [%]” value in series [3] (setting [5]) amounted to 81.9%; in series [3] (setting [6]), 85.6%; in series [3] (setting [7]), 89.8%; in series [4] (High dose group, Period 2, 150 mg/day), 1.9 ± 5.2%; in series [4] (High dose group, Period 3, 450 mg/day) it was 15.6 ± 11.7%; in series [4] (High dose group, Period 4, 450 mg/day), 0.5 ± 5.8%. The “CH4 Inhibition [%]” value in series [4] (High dose group, Period 5, 450 mg/day) is reported as 5.6 ± 3.0%; in series [4] (Low dose group, Period 2, 50 mg/day) it was −4.7 ± 2.9%; in series [4] (Low dose group, Period 3, 300 mg/day), 20.2 ± 9.8%; in series [4] (Low dose group, Period 4, 300 mg/day), 2.5 ± 4.6%; in series [4] (Low dose group, Period 5, 300 mg/day), −1.8 ± 4.0%. The inhibition at 2 µM in series [1] was found to be 81%. Further, the inhibition at 10 µM in series [1] turned out to be 97.5%.

Regarding `O=C(O)CCC(=O)N1N=C(c2ccc(-c3ccc(OC(F)(F)F)c(F)c3)cc2)CC1c1ccc2nccnc2c1` (stereo not drawn) [Compound 67, 4-(3-(3′-Fluoro-4′-(trifluoromethoxy)-[1,1′-biphenyl]-4-yl)-5-(quinoxalin-6-yl)-4,5-dihydro-1H-pyrazol-1-yl)-4-oxobutanoic acid], the “CH4 Inhibition [%] Average Days 1-3” value in series [3] came out at 36.5%. Besides, the “CH4 Inhibition [%]” value in series [3] (setting [5]) is reported as 24.2%; in series [3] (setting [6]), 36.7%; in series [3] (setting [7]) it was 48.6%. Moreover, in series [1], the inhibition at 2 µM is 51.8 ± 8.4%. Moreover, the inhibition at 10 µM in series [1] amounted to 92.4 ± 1.5%.

Consider `CC(C)S(=O)(=O)NC(=O)CCC(=O)N1N=C(c2ccc(-c3ccccc3)cc2)CC1c1ccc2nccnc2c1` (stereo not drawn) [Compound 69, 4-(3-([1,1′-Biphenyl]-4-yl)-5-(quinoxalin-6-yl)-4,5-dihydro-1H-pyrazol-1-yl)-N-(isopropylsulfonyl)-4-oxobutanamide], for which, in series [3], the “CH4 Inhibition [%] Average Days 1-3” value was 23.5%. In addition, the “CH4 Inhibition [%]” value in series [3] (setting [5]) is 11.9%; in series [3] (setting [6]), 26.3%; in series [3] (setting [7]), 32.4%. Besides, the inhibition at 2 µM in series [1] turned out to be 37.6 ± 5.6%. In addition, the inhibition at 10 µM in series [1] was determined as 92.8 ± 1.8%.

Regarding `CN(C)S(=O)(=O)NC(=O)CCC(=O)N1N=C(c2ccc(OC(F)(F)F)cc2)CC1c1ccc2nccnc2c1` (stereo not drawn) [Compound 126, N—(N,N-Dimethylsulfamoyl)-4-oxo-4-(5-(quinoxalin-6-yl)-3-(4-(trifluoromethoxy)phenyl)-4,5-dihydro-1H-pyrazol-1-yl) butanamide], the inhibition at 10 µM in series [1] came out at 25.5 ± 3.8%.

In the case of `CN(C)S(=O)(=O)NC(=O)CCC(=O)N1N=C(c2cccc(-c3ccccc3)c2)CC1c1ccc2nccnc2c1` (stereo not drawn) [Compound 127, 4-(3-([1,1′-Biphenyl]-3-yl)-5-(quinoxalin-6-yl)-4,5-dihydro-1H-pyrazol-1-yl)-N—(N,N-dimethylsulfamoyl)-4-oxobutanamide], in series [1], the inhibition at 2 µM was 16.8 ± 0.7% and the inhibition at 10 µM was 84.1 ± 3%.

In the case of `O=C(CCC(=O)N1N=C(c2ccc(Cl)cc2)CC1c1ccc2nccnc2c1)NS(=O)(=O)N1CCCC1` (stereo not drawn) [Compound 128, 4-(3-(4-Chlorophenyl)-5-(quinoxalin-6-yl)-4,5-dihydro-1H-pyrazol-1-yl)-4-oxo-N-(pyrrolidin-1-ylsulfonyl) butanamide], the inhibition at 10 µM in series [1] stood at 53 ± 5.7%.

In the case of `O=C(O)CCC(=O)N1N=C2c3cccc(-c4ccccc4)c3CCC2C1c1ccc2nccnc2c1` (stereo not drawn) [Compound 129, 4-Oxo-4-(6-phenyl-3-(quinoxalin-6-yl)-3,3a,4,5-tetrahydro-2H-benzo[g]indazol-2-yl)butanoic acid], the inhibition at 10 µM in series [1] stood at 42.5 ± 15.8%.
